According to ChEMBL document CHEMBL5500396, “Discovery, Multiparametric Optimization, and Solid-State Driven Identification of CHF-6550, a Novel Soft Dual Pharmacology Muscarinic Antagonist and β2 Agonist (MABA) for the Inhaled Treatment of Respiratory Diseases” (J Med Chem, 2024):

system: not listed separately; assay: in vitro; settings: rat, plasma
Description: Stability in rat plasma assessed as half-life at 5 uM incubated for 120 mins by LC-MS/MS analysis

Point of comparison: `CN1CCC[C@@H](OC(=O)[C@](O)(c2ccccc2)c2cccc(OCCCNC(=O)c3ccc(CNC[C@H](O)c4ccc(O)c5[nH]c(=O)ccc45)nc3)c2)C1.O=CO.O=CO`, half-life at 2 h, 5 µM 0.283 h. Against it:
- CN1CCC[C@H](OC(=O)[C@](O)(c2ccccc2)c2cccc(OCCCNC(=O)c3ccc(CNC[C@H](O)c4ccc(O)c5[nH]c(=O)ccc45)cc3)c2)C1.O=CO.O=CO — 2.1-fold lower, 0.133 h
- O=C(c1ccc(CNC[C@H](O)c2ccc(O)c3[nH]c(=O)ccc23)cc1)N1CC(COc2cccc([C@](O)(C(=O)OCC3CCN(Cc4ccccc4)CC3)c3ccccc3)c2)C1 — 2.9-fold higher, 0.833 h
- O=C(NCCCOc1cccc([C@](O)(C(=O)OCC2CCN(C3CCCC3)CC2)c2ccccc2)c1)c1ccc(CNC[C@H](O)c2ccc(O)c3[nH]c(=O)ccc23)cc1 — within 1.5-fold, 0.233 h
- COc1cc(C(=O)NCCCOc2cccc([C@](O)(C(=O)OCC3CCN(CC4CC4)CC3)c3ccccc3)c2)c(F)cc1CNC[C@H](O)c1ccc(O)c2[nH]c(=O)ccc12.O=CO.O=CO — within 1.5-fold, 0.25 h
- COc1cc(C(=O)NCCCOc2cccc([C@](O)(C(=O)O[C@@H]3CCCN(C)C3)c3ccccc3)c2)c(F)cc1CNC[C@H](O)c1ccc(O)c2[nH]c(=O)ccc12 — 5.1-fold higher, 1.45 h
- O=C(NCCCOc1cccc([C@](O)(C(=O)OCC2CCN(C3CCC3)CC2)c2ccccc2)c1)c1ccc(CNC[C@H](O)c2ccc(O)c3[nH]c(=O)ccc23)cc1 — within 1.5-fold, 0.317 h

system: not listed separately; assay: in vitro; settings: rat, hepatocytes
Description: Metabolic stability in rat hepatocytes assessed as clearance measured per 10^6 cells at 1 uM incubated for 90 mins by LC-MS/MS analysis

Point of comparison: `CN1CCC[C@@H](OC(=O)[C@](O)(c2ccccc2)c2cccc(OCCCNC(=O)c3ccc(CNC[C@H](O)c4ccc(O)c5[nH]c(=O)ccc45)nc3)c2)C1.O=CO.O=CO`, hepatocyte CLint at 1.5 h, 1 µM 20 µL/min/1e6 cells. Against it:
- CN1CCC[C@H](OC(=O)[C@](O)(c2ccccc2)c2cccc(OCCCNC(=O)c3ccc(CNC[C@H](O)c4ccc(O)c5[nH]c(=O)ccc45)cc3)c2)C1.O=CO.O=CO — 2.6-fold higher, 52 µL/min/1e6 cells
- O=C(c1ccc(CNC[C@H](O)c2ccc(O)c3[nH]c(=O)ccc23)cc1)N1CC(COc2cccc([C@](O)(C(=O)OCC3CCN(Cc4ccccc4)CC3)c3ccccc3)c2)C1 — within 1.5-fold, 22 µL/min/1e6 cells
- O=C(NCCCOc1cccc([C@](O)(C(=O)OCC2CCN(C3CCCC3)CC2)c2ccccc2)c1)c1ccc(CNC[C@H](O)c2ccc(O)c3[nH]c(=O)ccc23)cc1 — 2.5-fold higher, 51 µL/min/1e6 cells
- COc1cc(C(=O)NCCCOc2cccc([C@](O)(C(=O)OCC3CCN(CC4CC4)CC3)c3ccccc3)c2)c(F)cc1CNC[C@H](O)c1ccc(O)c2[nH]c(=O)ccc12.O=CO.O=CO — 2.4-fold higher, 47 µL/min/1e6 cells
- COc1cc(C(=O)NCCCOc2cccc([C@](O)(C(=O)O[C@@H]3CCCN(C)C3)c3ccccc3)c2)c(F)cc1CNC[C@H](O)c1ccc(O)c2[nH]c(=O)ccc12 — 2-fold higher, 40 µL/min/1e6 cells
- O=C(NCCCOc1cccc([C@](O)(C(=O)OCC2CCN(C3CCC3)CC2)c2ccccc2)c1)c1ccc(CNC[C@H](O)c2ccc(O)c3[nH]c(=O)ccc23)cc1 — 1.9-fold higher, 38 µL/min/1e6 cells

target: Beta-2 adrenergic receptor (Homo sapiens, UniProt P07550); assay: not given; settings: not given
Sequence (P07550 whole entry): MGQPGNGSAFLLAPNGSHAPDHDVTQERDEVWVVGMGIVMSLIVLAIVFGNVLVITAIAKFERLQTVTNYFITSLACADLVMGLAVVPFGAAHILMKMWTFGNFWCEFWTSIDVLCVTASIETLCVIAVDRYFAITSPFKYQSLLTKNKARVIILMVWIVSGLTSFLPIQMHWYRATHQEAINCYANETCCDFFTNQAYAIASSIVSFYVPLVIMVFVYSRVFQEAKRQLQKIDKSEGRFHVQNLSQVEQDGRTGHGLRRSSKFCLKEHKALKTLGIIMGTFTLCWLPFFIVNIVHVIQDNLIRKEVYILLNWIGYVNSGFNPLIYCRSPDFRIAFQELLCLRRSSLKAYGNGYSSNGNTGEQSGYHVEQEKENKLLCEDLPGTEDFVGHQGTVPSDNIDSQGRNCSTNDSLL

Point of comparison: `O=C(NCCCOc1cccc([C@](O)(C(=O)OCC2CCN(C3CCC3)CC2)c2ccccc2)c1)c1ccc(CNC[C@H](O)c2ccc(O)c3[nH]c(=O)ccc23)cc1`, Ki 0.0251 nM. Against it:
- CN1CCC[C@@H](OC(=O)[C@](O)(c2ccccc2)c2cccc(OCCCNC(=O)c3ccc(CNC[C@H](O)c4ccc(O)c5[nH]c(=O)ccc45)nc3)c2)C1.O=CO.O=CO — the same, 0.0251 nM
- CN1CCC[C@H](OC(=O)[C@](O)(c2ccccc2)c2cccc(OCCCNC(=O)c3ccc(CNC[C@H](O)c4ccc(O)c5[nH]c(=O)ccc45)cc3)c2)C1.O=CO.O=CO — the same, 0.0251 nM
- O=C(c1ccc(CNC[C@H](O)c2ccc(O)c3[nH]c(=O)ccc23)cc1)N1CC(COc2cccc([C@](O)(C(=O)OCC3CCN(Cc4ccccc4)CC3)c3ccccc3)c2)C1 — 40-fold higher, 1 nM
- O=C(NCCCOc1cccc([C@](O)(C(=O)OCC2CCN(C3CCCC3)CC2)c2ccccc2)c1)c1ccc(CNC[C@H](O)c2ccc(O)c3[nH]c(=O)ccc23)cc1 — within 1.5-fold, 0.02 nM
- COc1cc(C(=O)NCCCOc2cccc([C@](O)(C(=O)OCC3CCN(CC4CC4)CC3)c3ccccc3)c2)c(F)cc1CNC[C@H](O)c1ccc(O)c2[nH]c(=O)ccc12.O=CO.O=CO — 13-fold higher, 0.316 nM
- COc1cc(C(=O)NCCCOc2cccc([C@](O)(C(=O)O[C@@H]3CCCN(C)C3)c3ccccc3)c2)c(F)cc1CNC[C@H](O)c1ccc(O)c2[nH]c(=O)ccc12 — 1.6-fold lower, 0.0158 nM

system: not listed separately; assay: in vitro; settings: guinea pig, plasma
Description: Stability in guinea pig plasma assessed as half-life at 5 uM incubated for 120 mins by LC-MS/MS analysis

Point of comparison: `O=C(c1ccc(CNC[C@H](O)c2ccc(O)c3[nH]c(=O)ccc23)cc1)N1CC(COc2cccc([C@](O)(C(=O)OCC3CCN(Cc4ccccc4)CC3)c3ccccc3)c2)C1`, half-life at 2 h, 5 µM 0.317 h. Against it:
- CN1CCC[C@@H](OC(=O)[C@](O)(c2ccccc2)c2cccc(OCCCNC(=O)c3ccc(CNC[C@H](O)c4ccc(O)c5[nH]c(=O)ccc45)nc3)c2)C1.O=CO.O=CO — higher, > 2.5 h
- CN1CCC[C@H](OC(=O)[C@](O)(c2ccccc2)c2cccc(OCCCNC(=O)c3ccc(CNC[C@H](O)c4ccc(O)c5[nH]c(=O)ccc45)cc3)c2)C1.O=CO.O=CO — 2.7-fold higher, 0.85 h
- O=C(NCCCOc1cccc([C@](O)(C(=O)OCC2CCN(C3CCCC3)CC2)c2ccccc2)c1)c1ccc(CNC[C@H](O)c2ccc(O)c3[nH]c(=O)ccc23)cc1 — 7.3-fold higher, 2.32 h
- COc1cc(C(=O)NCCCOc2cccc([C@](O)(C(=O)OCC3CCN(CC4CC4)CC3)c3ccccc3)c2)c(F)cc1CNC[C@H](O)c1ccc(O)c2[nH]c(=O)ccc12.O=CO.O=CO — higher, > 2.5 h
- COc1cc(C(=O)NCCCOc2cccc([C@](O)(C(=O)O[C@@H]3CCCN(C)C3)c3ccccc3)c2)c(F)cc1CNC[C@H](O)c1ccc(O)c2[nH]c(=O)ccc12 — higher, > 2.5 h
- O=C(NCCCOc1cccc([C@](O)(C(=O)OCC2CCN(C3CCC3)CC2)c2ccccc2)c1)c1ccc(CNC[C@H](O)c2ccc(O)c3[nH]c(=O)ccc23)cc1 — 6.2-fold higher, 1.98 h

system: not listed separately; assay: in vitro; settings: human, hepatocytes
Description: Metabolic stability in human hepatocytes assessed as clearance measured per 10^6 cells at 1 uM incubated for 90 mins by LC-MS/MS analysis

Point of comparison: `O=C(NCCCOc1cccc([C@](O)(C(=O)OCC2CCN(C3CCCC3)CC2)c2ccccc2)c1)c1ccc(CNC[C@H](O)c2ccc(O)c3[nH]c(=O)ccc23)cc1`, hepatocyte CLint at 1.5 h, 1 µM 5 µL/min/1e6 cells. Against it:
- CN1CCC[C@@H](OC(=O)[C@](O)(c2ccccc2)c2cccc(OCCCNC(=O)c3ccc(CNC[C@H](O)c4ccc(O)c5[nH]c(=O)ccc45)nc3)c2)C1.O=CO.O=CO — lower, < 2 µL/min/1e6 cells
- CN1CCC[C@H](OC(=O)[C@](O)(c2ccccc2)c2cccc(OCCCNC(=O)c3ccc(CNC[C@H](O)c4ccc(O)c5[nH]c(=O)ccc45)cc3)c2)C1.O=CO.O=CO — the same, 5 µL/min/1e6 cells
- O=C(c1ccc(CNC[C@H](O)c2ccc(O)c3[nH]c(=O)ccc23)cc1)N1CC(COc2cccc([C@](O)(C(=O)OCC3CCN(Cc4ccccc4)CC3)c3ccccc3)c2)C1 — 3.2-fold higher, 16 µL/min/1e6 cells
- COc1cc(C(=O)NCCCOc2cccc([C@](O)(C(=O)OCC3CCN(CC4CC4)CC3)c3ccccc3)c2)c(F)cc1CNC[C@H](O)c1ccc(O)c2[nH]c(=O)ccc12.O=CO.O=CO — 1.8-fold higher, 9 µL/min/1e6 cells
- COc1cc(C(=O)NCCCOc2cccc([C@](O)(C(=O)O[C@@H]3CCCN(C)C3)c3ccccc3)c2)c(F)cc1CNC[C@H](O)c1ccc(O)c2[nH]c(=O)ccc12 — within 1.5-fold, 7 µL/min/1e6 cells
- O=C(NCCCOc1cccc([C@](O)(C(=O)OCC2CCN(C3CCC3)CC2)c2ccccc2)c1)c1ccc(CNC[C@H](O)c2ccc(O)c3[nH]c(=O)ccc23)cc1 — within 1.5-fold, 6 µL/min/1e6 cells

target: Muscarinic acetylcholine receptor M3 (Homo sapiens, UniProt P20309); assay: not given; settings: not given
Sequence (P20309 whole entry): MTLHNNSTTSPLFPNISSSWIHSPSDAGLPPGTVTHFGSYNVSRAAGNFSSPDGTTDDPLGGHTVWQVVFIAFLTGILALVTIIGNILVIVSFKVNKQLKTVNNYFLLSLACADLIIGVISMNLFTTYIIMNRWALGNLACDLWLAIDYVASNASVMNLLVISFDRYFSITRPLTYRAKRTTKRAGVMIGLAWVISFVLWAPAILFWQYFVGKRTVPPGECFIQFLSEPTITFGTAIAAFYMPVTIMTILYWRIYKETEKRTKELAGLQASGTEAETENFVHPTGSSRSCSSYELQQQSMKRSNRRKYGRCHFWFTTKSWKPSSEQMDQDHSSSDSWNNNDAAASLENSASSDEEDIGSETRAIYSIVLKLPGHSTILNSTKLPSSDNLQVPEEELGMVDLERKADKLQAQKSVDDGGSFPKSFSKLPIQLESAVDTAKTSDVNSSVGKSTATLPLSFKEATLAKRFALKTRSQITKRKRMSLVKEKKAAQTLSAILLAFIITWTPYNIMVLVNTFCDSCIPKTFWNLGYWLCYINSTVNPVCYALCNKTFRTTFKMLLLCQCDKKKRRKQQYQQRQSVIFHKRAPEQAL

Point of comparison: `O=C(NCCCOc1cccc([C@](O)(C(=O)OCC2CCN(C3CCCC3)CC2)c2ccccc2)c1)c1ccc(CNC[C@H](O)c2ccc(O)c3[nH]c(=O)ccc23)cc1`, Ki 1.58 nM. Against it:
- O=C(c1ccc(CNC[C@H](O)c2ccc(O)c3[nH]c(=O)ccc23)cc1)N1CC(COc2cccc([C@](O)(C(=O)OCC3CCN(Cc4ccccc4)CC3)c3ccccc3)c2)C1 — within 1.5-fold, 1.26 nM
- COc1cc(C(=O)NCCCOc2cccc([C@](O)(C(=O)OCC3CCN(CC4CC4)CC3)c3ccccc3)c2)c(F)cc1CNC[C@H](O)c1ccc(O)c2[nH]c(=O)ccc12.O=CO.O=CO — 160-fold lower, 0.01 nM
- O=C(NCCCOc1cccc([C@](O)(C(=O)OCC2CCN(C3CCC3)CC2)c2ccccc2)c1)c1ccc(CNC[C@H](O)c2ccc(O)c3[nH]c(=O)ccc23)cc1 — 1.6-fold lower, 1 nM

system: not listed separately; assay: in vitro; settings: human, plasma
Description: Stability in human plasma assessed as half-life at 5 uM incubated for 120 mins by LC-MS/MS analysis

`CN1CCC[C@@H](OC(=O)[C@](O)(c2ccccc2)c2cccc(OCCCNC(=O)c3ccc(CNC[C@H](O)c4ccc(O)c5[nH]c(=O)ccc45)nc3)c2)C1.O=CO.O=CO` and `CN1CCC[C@H](OC(=O)[C@](O)(c2ccccc2)c2cccc(OCCCNC(=O)c3ccc(CNC[C@H](O)c4ccc(O)c5[nH]c(=O)ccc45)cc3)c2)C1.O=CO.O=CO` cannot be ordered by half-life at 2 h, 5 µM: over 2.5 h for the first, over 2.5 h for the second.

`O=C(c1ccc(CNC[C@H](O)c2ccc(O)c3[nH]c(=O)ccc23)cc1)N1CC(COc2cccc([C@](O)(C(=O)OCC3CCN(Cc4ccccc4)CC3)c3ccccc3)c2)C1` and `O=C(NCCCOc1cccc([C@](O)(C(=O)OCC2CCN(C3CCC3)CC2)c2ccccc2)c1)c1ccc(CNC[C@H](O)c2ccc(O)c3[nH]c(=O)ccc23)cc1` cannot be ordered by half-life at 2 h, 5 µM: over 2.5 h for the first, over 2.5 h for the second.

`O=C(NCCCOc1cccc([C@](O)(C(=O)OCC2CCN(C3CCCC3)CC2)c2ccccc2)c1)c1ccc(CNC[C@H](O)c2ccc(O)c3[nH]c(=O)ccc23)cc1` and `COc1cc(C(=O)NCCCOc2cccc([C@](O)(C(=O)OCC3CCN(CC4CC4)CC3)c3ccccc3)c2)c(F)cc1CNC[C@H](O)c1ccc(O)c2[nH]c(=O)ccc12.O=CO.O=CO` cannot be ordered by half-life at 2 h, 5 µM: over 2.5 h for the first, over 2.5 h for the second.

In the case of `COc1cc(C(=O)NCCCOc2cccc([C@](O)(C(=O)O[C@@H]3CCCN(C)C3)c3ccccc3)c2)c(F)cc1CNC[C@H](O)c1ccc(O)c2[nH]c(=O)ccc12`, the half-life at 2 h, 5 µM is reported as over 2.5 h.
